Read-outs that look alike come from different tables or passages of the source.
Columns and labels:
collagen IV sites = conditions: unconjugated VEGF; limited to the number of collagen IV sites available; cited from earlier work
collagen IV [1] = conditions: vs scrambled peptide control biotin-CBPi-QK; measured using Alexafluor 488 streptavidin
collagen IV [2] = assay: binding assay to collagen IV of CBP-VEGF vs CBPi-VEGF, ELISA for VEGF121; conditions: vs scrambled peptide control CBPi-VEGF; measured using an ELISA for VEGF121
Method: The result is measured using an ELISA for VEGF121.

For VEGF, the “share of VEGF added to a scaffold that will bind” value (collagen IV sites) is listed as 5%.

For “biotin-CQDSETRT-KLTWQELYQLKYKGI-COOH (SEQ ID NO: 16) [biotin-CBP-QK]”, the “binding to collagen IV” value (collagen IV [1]) was “significantly greater than the scrambled control at all concentrations”.

B1: CBP-VEGF: VEGF121 protein conjugated by click chemistry to collagen binding protein CBP (CQDSETRTFY, SEQ ID NO: 1) (conjugate)
chain: APMAEGGGQNHHEVVKFMDVYQRSYCHPIETLVDIFQEYPDEIEYIFKPSCVPLMRCGGCCNDEGLECVPTEESNITMQIMRIKPHQGQHIGEMSFLQHNKCECRPKKDRARQEKCDKPRR
peptide: CQDSETRTFY
For B1, the “binding to collagen IV” value (collagen IV [2]) was “significantly greater than the scrambled control at all concentrations”.
